From patent publication US9023789B2, “Amylin analogs and pharmaceutical compositions thereof” (Novo Nordisk A/S, priority 2012, dated 2015) come the findings set out here.

Broadly, the IC50 is the concentration needed to halve the response being measured.

The structures appear in SMILES notation. Values after ≈ are worked out from the molar mass of the structure shown. Like-named read-outs stand apart in the source and are kept apart here. Numbered stars: 1 amine (or outer) side, 2 acyl side, 3 side chain; on linkers, the order of the positions; unused ones are H or OH. Bridge positions count the residues as written; N and C are the ends. Side chains are listed from the residue outwards. Peptide text beside a SMILES is read from it. * marks the point of attachment. C20 diacid = O=C(O)CCCCCCCCCCCCCCCCCCC(=O)*; γGlu = O=C(O)[C@H](CCC(=O)[*:2])N[*:1]; AEEA = NCCOCCOCC(=O)O

A short description of data set [1]: ASSAY (IV) determination of solubility. The class given is physicochemical. The gist of the method: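 Samples of polypeptide, prepared from a water stock at […] and diluted 1:1 into 100 mM buffers spanning pH 3.0 to 8.0, stood 18 hours at room temperature. Polypeptide concentration was then determined by UPLC following centrifugation.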
Data set [2] has as its target T1, rat amylin receptor (rat calcitonin receptor + rat RAMP 3) (Rattus norvegicus, UniProt P32214+Q9JJ73).
T1 construct: expressed in transfected cells; host or cells: BHK tk'ts 13 (transient, FuGENE 6), membranes
T1 sequence (P32214 25-479 isoform P32214-2 limits assumed): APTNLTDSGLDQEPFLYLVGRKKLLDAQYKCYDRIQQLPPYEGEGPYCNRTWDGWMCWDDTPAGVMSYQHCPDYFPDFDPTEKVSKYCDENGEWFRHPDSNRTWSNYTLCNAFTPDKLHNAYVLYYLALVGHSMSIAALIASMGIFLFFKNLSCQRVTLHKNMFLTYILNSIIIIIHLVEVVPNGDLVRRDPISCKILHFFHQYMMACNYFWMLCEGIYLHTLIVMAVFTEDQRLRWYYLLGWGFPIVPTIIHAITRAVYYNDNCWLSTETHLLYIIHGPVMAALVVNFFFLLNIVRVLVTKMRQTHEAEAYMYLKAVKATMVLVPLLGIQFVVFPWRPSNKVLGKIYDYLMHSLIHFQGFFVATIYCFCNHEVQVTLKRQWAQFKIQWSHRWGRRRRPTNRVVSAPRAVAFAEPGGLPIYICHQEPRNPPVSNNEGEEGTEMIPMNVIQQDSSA
T1 sequence (Q9JJ73 23-147 partner): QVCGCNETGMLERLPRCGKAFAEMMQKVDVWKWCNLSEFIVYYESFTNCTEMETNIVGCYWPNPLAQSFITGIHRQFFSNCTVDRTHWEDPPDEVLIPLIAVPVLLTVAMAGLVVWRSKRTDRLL
As to the kind of experiment: ASSAY (VI) binding to the rat amylin receptor. The note with it: for IC50: binding to rat amylin receptor, read-out: rAmylin-R bind IC50. A digest of the protocol: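 The cell-membrane assay assessed binding at the rat amylin receptor. BHK tk′ts 13 cells were transfected transiently with rat calcitonin receptor, with FuGENE® 6 (Roche) as the transfection reagent, used per the manufacturer's recommendations. Approximately 48 hours after transfection the cells were harvested, and membranes were prepared for measuring binding.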

Data set [3] deals with T2, rat calcitonin receptor (Rattus norvegicus, UniProt P32214).
T2 construct: expressed in transfected cells; host or cells: BHK tk'ts 13 (transient, FuGENE 6), membranes
T2 sequence (P32214 25-479 isoform P32214-2 limits assumed): T1 sequence (P32214 25-479 isoform P32214-2 limits assumed)
As to the kind of experiment: ASSAY (VIII) binding to the rat calcitonin receptor. The conditions noted are these: Table 7, read-out: rCTR bind IC50. The gist of the method: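 Cell membranes for binding came from BHK tk′ts 13 cells harvested approximately 48 hours after transient transfection with the rat receptor.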

[4] abbreviates: bistrispropane buffer, pH 6.5, read-out: Solubility pH 6.5 Concentration.
The mark [5] stands for this setting: bistrispropane buffer, pH 7.5, read-out: Solubility pH 7.5 Concentration.
[6] abbreviates: bistrispropane buffer, pH 6.0, read-out: Solubility pH 6.0 Concentration.
[7] abbreviates: bistrispropane buffer, pH 7.0, read-out: Solubility pH 7.0 Concentration.
The mark [8] stands for this setting: bistrispropane buffer, pH 8.0, read-out: Solubility pH 8.0 Concentration.
The mark [9] stands for this setting: glycylglycine buffer, pH 3.0, read-out: Solubility pH 3.0 Concentration.
Setting [10] is: glycylglycine buffer, pH 4.0, read-out: Solubility pH 4.0 Concentration.
The mark [11] stands for this setting: glycylglycine buffer, pH 5.0, read-out: Solubility pH 5.0 Concentration.
The mark [12] stands for this setting: Table 7, rat binding selectivity, rCTR IC50 / rAmylin-R IC50.
The mark [13] stands for this setting: Table 7a (preferred compounds), rat binding selectivity, rCTR IC50 / rAmylin-R IC50.
The mark [14] stands for this setting: ratio of rCTR bind IC50 to rAmylin-R bind IC50.

As for `CC[C@H](C)[C@H](NC(=O)[C@H](C)NC(=O)CNC(=O)[C@H](Cc1ccccc1)NC(=O)[C@H](CC(N)=O)NC(=O)[C@@H]1CCCN1C(=O)[C@H](CO)NC(=O)[C@H](CO)NC(=O)[C@H](Cc1c[nH]cn1)NC(=O)[C@H](CCCNC(=N)N)NC(=O)[C@H](CC(C)C)NC(=O)[C@H](Cc1ccccc1)NC(=O)[C@H](CC(N)=O)NC(=O)[C@H](C)NC(=O)[C@H](CC(C)C)NC(=O)[C@H](CCCNC(=N)N)NC(=O)[C@H](CCC(N)=O)NC(=O)[C@@H](NC(=O)[C@H](C)NC(=O)[C@@H]1CSSC[C@H](NC(=O)[C@@H](N)CCCCNC(=O)COCCOCCNC(=O)CC[C@H](NC(=O)CCCCCCCCCCCCCCCCCCC(=O)O)C(=O)O)C(=O)N[C@@H](CC(N)=O)C(=O)N[C@@H]([C@@H](C)O)C(=O)N[C@@H](C)C(=O)N[C@@H]([C@@H](C)O)C(=O)N1)[C@@H](C)O)C(=O)N1CCC[C@H]1C(=O)N[C@@H](CO)C(=O)N[C@@H](CO)C(=O)N[C@H](C(=O)N1CCC[C@H]1C(=O)N[C@H](C(=O)NCC(=O)N[C@@H](CO)C(=O)N[C@@H](CC(N)=O)C(=O)N[C@H](C(=O)N[C@@H](Cc1ccc(O)cc1)C(N)=O)[C@@H](C)O)C(C)C)[C@@H](C)O` [Example 49], the solubility at 18 h in data set [1] (setting [4]), in data set [1] (setting [5]), in data set [1] (setting [6]), in data set [1] (setting [7]), in data set [1] (setting [8]) and in data set [1] (setting [9]) was at least 200 µM in each case. The solubility at 18 h in data set [1] (setting [10]) and in data set [1] (setting [11]) was at least 200 µM throughout. Besides, the half-maximal inhibitory concentration (IC50) in data set [2] (Table 7) stood at 1.08 nM; in data set [3], 51.4 nM. The “Ratio rCT/rAmylin binding” value in data set [2] (setting [12]), in data set [2] (setting [13]) and in data set [2] (setting [14]) was 47.7 throughout.

As to `CC[C@H](C)[C@H](NC(=O)[C@H](C)NC(=O)CNC(=O)[C@H](Cc1ccccc1)NC(=O)[C@H](CC(N)=O)NC(=O)[C@@H]1CCCN1C(=O)[C@H](CO)NC(=O)[C@H](CO)NC(=O)[C@H](Cc1c[nH]cn1)NC(=O)[C@H](CCCNC(=N)N)NC(=O)[C@H](CC(C)C)NC(=O)[C@H](Cc1ccccc1)NC(=O)[C@H](CC(N)=O)NC(=O)[C@H](C)NC(=O)[C@H](CC(C)C)NC(=O)[C@H](CCCNC(=N)N)NC(=O)[C@H](CCC(N)=O)NC(=O)[C@@H](NC(=O)[C@H](C)NC(=O)[C@@H]1CSSC[C@H](NC(=O)[C@@H](N)CCCCNC(=O)COCCOCCNC(=O)CC[C@H](NC(=O)CCCCCCCCCCCCCCCCCCC(=O)O)C(=O)O)C(=O)N[C@@H](CC(N)=O)C(=O)N[C@@H]([C@@H](C)O)C(=O)N[C@@H](C)C(=O)N[C@@H]([C@@H](C)O)C(=O)N1)[C@@H](C)O)C(=O)N1CCC[C@H]1C(=O)N1CCC[C@H]1C(=O)N[C@@H](CO)C(=O)N[C@H](C(=O)N1CCC[C@H]1C(=O)N[C@H](C(=O)NCC(=O)N[C@@H](CO)C(=O)N[C@@H](CC(N)=O)C(=O)N[C@H](C(=O)N[C@@H](Cc1ccc(O)cc1)C(N)=O)[C@@H](C)O)C(C)C)[C@@H](C)O` [Example 53] (H-K([AEEA-γGlu-C20 diacid])CNTATCATQRLANFLRHSSPNFGAIPPSTPVGSNTY-NH2; disulfide 2-7; N-terminus assumed), the solubility at 18 h in data set [1] (setting [4]), in data set [1] (setting [5]), in data set [1] (setting [6]), in data set [1] (setting [7]), in data set [1] (setting [8]) and in data set [1] (setting [9]) was at least 200 µM in each case. The solubility at 18 h in data set [1] (setting [10]) and in data set [1] (setting [11]) was at least 200 µM throughout. The IC50 in data set [2] (Table 7) came out at 0.084 nM; in data set [3] it was 10.9 nM. Also, the “Ratio rCT/rAmylin binding” value in data set [2] (setting [12]), in data set [2] (setting [13]) and in data set [2] (setting [14]) was 130.1 in each case.

Take `CC[C@H](C)[C@H](NC(=O)[C@H](C)NC(=O)CNC(=O)[C@H](Cc1ccccc1)NC(=O)[C@H](CC(N)=O)NC(=O)[C@@H]1CCCN1C(=O)[C@H](CO)NC(=O)[C@H](CO)NC(=O)[C@H](Cc1c[nH]cn1)NC(=O)[C@H](CCCNC(=N)N)NC(=O)[C@H](CC(C)C)NC(=O)[C@H](Cc1ccccc1)NC(=O)[C@H](CC(N)=O)NC(=O)[C@H](C)NC(=O)[C@H](CC(C)C)NC(=O)[C@H](CCCNC(=N)N)NC(=O)[C@H](CCC(N)=O)NC(=O)[C@@H](NC(=O)[C@H](C)NC(=O)[C@@H]1CSSC[C@H](NC(=O)[C@@H](N)CCCCNC(=O)COCCOCCNC(=O)CC[C@H](NC(=O)CCCCCCCCCCCCCCCCCCC(=O)O)C(=O)O)C(=O)N[C@@H](CC(N)=O)C(=O)N[C@@H]([C@@H](C)O)C(=O)N[C@@H](C)C(=O)N[C@@H]([C@@H](C)O)C(=O)N1)[C@@H](C)O)C(=O)N1CCC[C@H]1C(=O)N[C@@H](CO)C(=O)N1CCC[C@H]1C(=O)N[C@H](C(=O)N[C@@H](CC(N)=O)C(=O)N[C@H](C(=O)NCC(=O)N1CCC[C@H]1C(=O)N[C@@H](CC(N)=O)C(=O)N[C@H](C(=O)N[C@@H](Cc1ccc(O)cc1)C(N)=O)[C@@H](C)O)C(C)C)[C@@H](C)O` [Example 56] (H-K([AEEA-γGlu-C20 diacid])CNTATCATQRLANFLRHSSPNFGAIPSPTNVGPNTY-NH2; disulfide 2-7 (inferred); N-terminus assumed): the solubility at 18 h in data set [1] (setting [4]) is at least 200 µM; in data set [1] (setting [5]) it was at least 200 µM; in data set [1] (setting [6]), at least 200 µM; in data set [1] (setting [7]), at least 200 µM; in data set [1] (setting [8]), 147 µM (≈ 668 µg/mL); in data set [1] (setting [9]), at least 200 µM. The solubility at 18 h in data set [1] (setting [10]) and in data set [1] (setting [11]) was at least 200 µM in each case. Besides, the half-inhibitory concentration (IC50) in data set [2] (Table 7) stood at 0.04 nM; in data set [3] it was 5.26 nM. The “Ratio rCT/rAmylin binding” value in data set [2] (setting [12]), in data set [2] (setting [13]) and in data set [2] (setting [14]) was 131.4 throughout.

On to `CC[C@H](C)[C@H](NC(=O)[C@H](C)NC(=O)CNC(=O)[C@H](Cc1ccccc1)NC(=O)[C@H](CC(N)=O)NC(=O)[C@@H]1CCCN1C(=O)[C@H](CO)NC(=O)[C@H](CO)NC(=O)[C@H](Cc1c[nH]cn1)NC(=O)[C@H](CCCNC(=N)N)NC(=O)[C@H](CC(C)C)NC(=O)[C@H](Cc1ccccc1)NC(=O)[C@H](CC(N)=O)NC(=O)[C@H](C)NC(=O)[C@H](CC(C)C)NC(=O)[C@H](CCCNC(=N)N)NC(=O)[C@H](CCC(N)=O)NC(=O)[C@@H](NC(=O)[C@H](C)NC(=O)[C@@H]1CSSC[C@H](NC(=O)[C@@H](N)CCCCNC(=O)COCCOCCNC(=O)CC[C@H](NC(=O)CCCCCCCCCCCCCCCCCCC(=O)O)C(=O)O)C(=O)N[C@@H](CC(N)=O)C(=O)N[C@@H]([C@@H](C)O)C(=O)N[C@@H](C)C(=O)N[C@@H]([C@@H](C)O)C(=O)N1)[C@@H](C)O)C(=O)N1CCC[C@H]1C(=O)N[C@@H](CO)C(=O)N[C@@H](CO)C(=O)N[C@H](C(=O)N[C@@H](CC(N)=O)C(=O)N[C@H](C(=O)NCC(=O)N1CCC[C@H]1C(=O)N[C@@H](Cc1c[nH]cn1)C(=O)N[C@H](C(=O)N[C@@H](Cc1ccc(O)cc1)C(N)=O)[C@@H](C)O)C(C)C)[C@@H](C)O` [Example 58] (H-K([AEEA-γGlu-C20 diacid])CNTATCATQRLANFLRHSSPNFGAIPSSTNVGPHTY-NH2; disulfide 2-7), for which the solubility at 18 h in data set [1] (setting [4]) is at least 200 µM; in data set [1] (setting [5]), 96 µM (≈ 438 µg/mL); in data set [1] (setting [6]), at least 200 µM; in data set [1] (setting [7]), at least 200 µM; in data set [1] (setting [8]), 48 µM (≈ 219 µg/mL); in data set [1] (setting [9]), at least 200 µM. In addition, the solubility at 18 h in data set [1] (setting [10]) and in data set [1] (setting [11]) was at least 200 µM each time. Further, the “Solubility pH 6.5 Concentration” value in data set [1] (pH 6.5 (Table 9a)) is recorded as “≧200 μM”. Besides, in data set [1] (pH 7.0 (Table 9a)), the “Solubility pH 7.0 Concentration” value is on record as “≧200 μM”. For the same compound, the IC50 in data set [2] (Table 7) is 0.135 nM; in data set [3], 10.3 nM. Further, the “Ratio rCT/rAmylin binding” value in data set [2] (setting [12]), in data set [2] (setting [13]) and in data set [2] (setting [14]) was 76.6 throughout.
